Measured values: paper PMC4488731 (Viruses, 2015)

Biological target: T1, EV-A71 2A protease (r2A protease) (Enterovirus A71, UniProt B9VUU3)
T1 sequence (B9VUU3 863-1012 limits assumed): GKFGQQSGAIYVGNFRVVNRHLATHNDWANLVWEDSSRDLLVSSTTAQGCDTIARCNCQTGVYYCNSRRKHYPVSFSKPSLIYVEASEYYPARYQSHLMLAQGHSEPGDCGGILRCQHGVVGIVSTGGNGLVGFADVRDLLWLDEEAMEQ
Assay type: biochemical
Conditions: 37 °C, 2 h, 5 µg/mL r2A, 10 µg/mL HRP substrate

CCOC(=O)C1=C(Nc2cc(C)cc(C)c2)OCC1=O [CW-33, Ethyl 2-(3′,5′-dimethylanilino)-4-oxo-4,5-dihydrofuran-3-carboxylate] showed an IC50 of 53.1 µM.
